# Reference: article PMC9108603, “Microbial Metabolite Inspired β‐Peptide Polymers Displaying Potent and Selective Antifungal Activity” (Advanced Science, 2022)
# Read-outs that look alike come from different tables or passages of the source.
# How the values were obtained:
# [1] = tested on: human red blood cells; assay: Hemolysis assay; conditions: human RBCs in TBS pH 7.2, 37 °C, 1 h, OD 405 nm, 2000 to 15.6 μg/mL, Triton X-100 as 100%
# Experimental: (§1) aforementioned antifungal assay. Gram-positive bacteria ( S. aureus ATCC 6538, S.
# The positive controls used in
# Then, 100 μL of the RBC working
# Molecular Devices Emax precision microplate reader. Measurements were performed in duplicate and repeated on three different days. The percentage of hemolysis at each polymer […]
# and plotted against polymer concentration to give the dose-response curves for hemolysis for each polymer. The HC 10 value for each polymer was defined as the polymer concentration to cause 10% lysis of RBCs. All measurements were performed with three replicates.
# Cytotoxicity assay. Cytotoxicity tests were performed on NIH 3T3 fibroblast cells, endothelial cells (HUVEC), macrophage (RAW264.7), liver cells (LO2), kidney cells (COS7) and enterocyte (NCM-460) using MTT assay. Cells were cultured in DMEM supplemented with 10% FBS, 5% penicillin, 2 mM L-glutamine and incubated at 37 °C in 5% CO 2. […]
# (§2) concentrations ranging from 800 to 1.6 μg/mL. […] Then 85 µL of the supernatant from each well was transferred to the corresponding well in a new plate, followed by absorbance measurement at 570 nm on a plate reader. […] The percentage of cell viability in each test well, relative to the positive control (which defines 100%) w as calculated from [% fibroblast growth = (A polymer – Ablank)/(Acontrol
# [2] = tested on: various mammalian cells; assay: Cytotoxicity, MTT assay, summary over cell types; assay type: cell-based; conditions: NIH 3T3, HUVEC, RAW264.7, LO2, COS7, NCM‐460, 24 h
# Experimental: (§3) Cytotoxicity assay. Cytotoxicity tests were performed on NIH 3T3 fibroblast cells, endothelial cells (HUVEC), macrophage (RAW264.7), liver cells (LO2), kidney cells (COS7) and enterocyte (NCM-460) using MTT assay. Cells were cultured in DMEM supplemented with 10% FBS, 5% penicillin, 2 mM L-glutamine and incubated at 37 °C in 5% CO 2. Cells were harvested and seeded onto 96-well plates at a density of 1.0 × 10^4 cells per well and incubated for 24 h. On each plate, wells containing growth medium only and cells in growth medium without any antifungal agent were used as the negative and positive control, […]
# as §2, with “μg/mL. Medium in each cell-containing well was replaced with 100 μL of the corresponding polymer solution, and the plates were incubated at 37 °C for 24 h. Then, the solution in each well was switched to 100 µL MTT solution (1 mg/mL) and the plate was incubated in the dark at 37 °C for 4 h.” for “μg/mL.”, “Ablank)/(Acontrol – A blank) × 100]. […]” for “Ablank)/(Acontrol”
# [3] = tested on: endothelial cells (HUVEC); assay: Cytotoxicity, MTT assay; assay type: cell-based, human; conditions: 24 h, 37 °C, 800 to 1.6 μg/mL, 50% cell viability
# Experimental: as §3
# as §2, with “μg/mL. Medium in each cell-containing well was replaced with 100 μL of the corresponding polymer solution, and the plates were incubated at 37 °C for 24 h. Then, the solution in each well was switched to 100 µL MTT solution (1 mg/mL) and the plate was incubated in the dark at 37 °C for 4 h.” for “μg/mL.”, “Ablank)/(Acontrol – A blank) × 100]. […]” for “Ablank)/(Acontrol”
# [4] = tested on: C. neoformans; assay: MFC assay, plating after the MIC test; assay type: cell-based; conditions: Cryptococcus neoformans, 48 h; note: kills > 99.9%
# Experimental: (§4) In vitro antifungal assays. The MIC assays for C. albicans (K1, SC5314, Gu5, ATCC90028, R01, R02, R03 and R04 strains) and C. neoformans (H99, MYA737 and JEC21 strains) were conducted according to a previously described protocol. The cultured fungal cells were collected at 2.5 × 10^3 CFU/mL in RPMI 1640 medium to give the working suspension. Two- […]
# (§5) Then 50 µL of the cell suspension was added to each well. Wells containing cells in RPMI without any polymer or antifungal drug were used as drug-free controls, and wells containing RPMI medium only were used as cell-free controls. The plate was gently stirred for 10 seconds and then incubated at 30 °C. After C. albicans and C. neoformans cells were incubated for 24 h and 48 h, respectively, fungal cell growth was checked visually. The MIC values were identified as the lowest concentration […]
# (§6) The MFC assay for Candida and Cryptococcus was conducted after the MIC test.
# (§7) An aliquot of 3 µL premixed suspension from each well was plated on the yeast extract-peptone-dextrose (YPD) agar. The plates were incubated at 30 °C for 24 h and 48 h, respectively, for C. albicans cells and C. neoformans cells. Then the plate was inspected visually for colony formation. […]
# [5] = tested on: C. albicans; assay: MFC assay, plating after the MIC test; assay type: cell-based; conditions: Candida albicans; note: kills > 99.9%
# Experimental: as §4, §5, §6, §7
# [6] = tested on: C. neoformans; assay: MIC assay (in vitro antifungal assay); assay type: cell-based; conditions: Cryptococcus neoformans, 48 h
# Experimental: as §4
# as §5, with “plate to give 50 µL compound solution in each well. Then” for “Then”, “visually.” for “visually. The MIC values were identified as the lowest concentration”
# [7] = tested on: C. albicans; assay: MIC assay (in vitro antifungal assay); assay type: cell-based, Candida albicans
# Experimental: as §4
# as §5, with “visually.” for “visually. The MIC values were identified as the lowest concentration”
# [8] = tested on: C. albicans (R02 strain); assay: microbe, parasite or virus in culture; assay type: cell-based, Candida albicans; conditions: for MIC50: Candida albicans
# Experimental: Drug resistance studies. Drug resistance was induced by treating the C. albicans (R02 strain) repeatedly with antifungal agents. […]
# albicans were tested for 30 passages of growth, which is long enough and adopted by many studies. C. albicans exposed to the 1/2 MIC concentration at the particular passage were re-grown to a logarithmic growth phrase and re-used for the subsequent passage’s MIC measurement for the same antifungal agent. Drug-resistant behavior of C. albicans was evaluated by recording the changes in the MIC compared to the original passage. All measurements were performed in duplicates. […]
# [9] = tested on: A. Baumannii ATCC 747; assay: Antibacterial MIC test; assay type: cell-based; conditions: 1.0 × 10^5 CFU/mL in MH medium
# Source text: as §1
# [10] = tested on: E. coli ATCC 25922; assay: Antibacterial MIC test; assay type: cell-based; conditions: 1.0 × 10^5 CFU/mL in MH medium
# Source text: as §1
# [11] = tested on: K. pneumoniae ATCC 700603; assay: Antibacterial MIC test; assay type: cell-based; conditions: 1.0 × 10^5 CFU/mL in MH medium
# Source text: as §1
# [12] = tested on: B. subtilis BR151; assay: Antibacterial MIC test; assay type: cell-based; conditions: 1.0 × 10^5 CFU/mL in MH medium
# Source text: as §1
# [13] = tested on: S. aureus ATCC 6538; assay: Antibacterial MIC test; assay type: cell-based; conditions: 1.0 × 10^5 CFU/mL in MH medium
# Source text: as §1
# [14] = tested on: S. epidermidis ATCC 49134; assay: Antibacterial MIC test; assay type: cell-based; conditions: 1.0 × 10^5 CFU/mL in MH medium
# Source text: as §1
# [15] = tested on: Gram‐positive and Gram‐negative bacteria; assay: Antibacterial MIC test, summary over six bacteria; assay type: cell-based; conditions: S. aureus, S. epidermidis, B. subtilis, E. coli, A. baumannii, K. pneumoniae
# Source text: as §1
compound,measurement,setting,value
poly(DL‐diaminopropionic acid) [PDAP5],HC10 (concentration to cause 10% hemolysis),[1],1000 µg/mL
same,IC50 over six mammalian cell types (range),[2],340 to 800 mg/L
poly(DL‐diaminopropionic acid) [PDAP10],IC50 HUVEC,[3],675 mg/L
OC(Cn1cncn1)(Cn1cncn1)c1ccc(F)cc1F [fluconazole],MFC,[4]; read-out: MFC C. neoformans H99,6.3 mg/L
same,MFC,[4]; read-out: MFC C. neoformans JEC21,12.5 mg/L
same,MFC,[4]; read-out: MFC C. neoformans MYA737,6.3 mg/L
same,MFC,"[5]; 24 h, read-out: MFC C. albicans Gu5",> 200 mg/L
same,MFC,"[5]; 24 h, read-out: MFC C. albicans K1",> 200 mg/L
same,MFC,"[5]; 24 h, read-out: MFC C. albicans R01",> 200 mg/L
same,MFC,"[5]; 24 h, read-out: MFC C. albicans R02",> 200 mg/L
same,MFC,"[5]; 24 h, read-out: MFC C. albicans R03",> 200 mg/L
same,MFC,"[5]; 24 h, read-out: MFC C. albicans R04",> 200 mg/L
same,MFC,"[5]; ATCC90028, 24 h, read-out: MFC C. albicans ATCC90028",> 200 mg/L
same,MFC,"[5]; SC5314, 24 h, read-out: MFC C. albicans SC5314",> 200 mg/L
same,MIC50,[6]; read-out: MIC50 (row marked fluconazole*) C. neoformans H99,6.3 mg/L
same,MIC50,[6]; read-out: MIC50 (row marked fluconazole*) C. neoformans JEC21,12.5 mg/L
same,MIC50,[6]; read-out: MIC50 (row marked fluconazole*) C. neoformans MYA737,6.3 mg/L
same,MIC50,"[7]; Candida albicans, 24 h, read-out: MIC50 (used for fluconazole) C. albicans Gu5",200 mg/L
same,MIC50,"[7]; Candida albicans, 24 h, read-out: MIC50 (used for fluconazole) C. albicans K1",0.4 mg/L
same,MIC50,"[7]; Candida albicans, 24 h, read-out: MIC50 (used for fluconazole) C. albicans R01",0.4 mg/L
same,MIC50,"[7]; Candida albicans, 24 h, read-out: MIC50 (used for fluconazole) C. albicans R02",0.4 mg/L
same,MIC50,"[7]; Candida albicans, 24 h, read-out: MIC50 (used for fluconazole) C. albicans R03",0.2 mg/L
same,MIC50,"[7]; Candida albicans, 24 h, read-out: MIC50 (used for fluconazole) C. albicans R04",0.2 mg/L
same,MIC50,"[7]; Candida albicans, ATCC90028, 24 h, read-out: MIC50 (used for fluconazole) C. albicans ATCC90028",0.2 mg/L
same,MIC50,"[7]; Candida albicans, SC5314, 24 h, read-out: MIC50 (used for fluconazole) C. albicans SC5314",50 mg/L
same,MIC,"[7]; Candida albicans, read-out: MIC of fluconazole (complete inhibition), all strains of C. albicans",> 200 mg/L
same,Increase of MIC50 after 30 passages,"[8]; C. albicans R02, continuous treatment with 0.5 × MIC50",eightfolds
same,MIC50,[8]; read-out: MIC50 after 30 passages,1.6 mg/L
same,MIC50,[8]; read-out: MIC50 before passaging,0.2 mg/L
polymyxin B,MIC A. baumannii,[9],0.2 mg/L
same,MIC E. coli,[10],0.2 mg/L
same,MIC K. pneumoniae,[11],0.8 mg/L
ε‐poly‐lysine [ε-PL],Effect of increasing K+ on antifungal activity,"[7]; K+ up to 20 × 10^−3 M, C. albicans K1",didn't affect
same,"MIC C. albicans K1, standard MIC test in RPMI 1640","[7]; Na+ 103 mM, K+ 5.4 mM",400 mg/L
same,"MIC C. albicans K1, physiological salt concentration","[7]; Na+ 150 mM, K+ 5.4 mM",1600 μg/mL
same,"MIC C. albicans K1, Na+ ↑","[7]; Na+ 200 mM, K+ 5.4 mM",> 1600 mg/L
same,MIC against C. albicans (Figure 1a),[7]; approximate value printed in the design figure,~ 400 μg/mL
same,MIC against three strains of C. albicans (range),"[7]; range over three strains, Figure 2d",200 to 400 mg/L
same,MIC A. baumannii,[9],6.3 mg/L
same,MIC B. subtilis,[12],1.6 mg/L
same,MIC S. aureus,[13],3.1 mg/L
same,MIC E. coli,[10],6.3 mg/L
same,MIC K. pneumoniae,[11],6.3 mg/L
same,MIC S. epidermidis,[14],3.1 mg/L
same,MIC against the six bacteria (summary),[15],1.6 to 6.3 mg/L
